Drawing on ChEMBL document CHEMBL3627651, “Fine tuning of agonistic/antagonistic activity for vitamin D receptor by 22-alkyl chain length of ligands: 22S-Hexyl compound unexpectedly restored agonistic activity” (Bioorg Med Chem, 2015), this text covers IC50 and Activity for one molecule.

For one experiment, the target named is T1, Vitamin D3 receptor (Homo sapiens, UniProt P11473).
T1 sequence (P11473 whole entry): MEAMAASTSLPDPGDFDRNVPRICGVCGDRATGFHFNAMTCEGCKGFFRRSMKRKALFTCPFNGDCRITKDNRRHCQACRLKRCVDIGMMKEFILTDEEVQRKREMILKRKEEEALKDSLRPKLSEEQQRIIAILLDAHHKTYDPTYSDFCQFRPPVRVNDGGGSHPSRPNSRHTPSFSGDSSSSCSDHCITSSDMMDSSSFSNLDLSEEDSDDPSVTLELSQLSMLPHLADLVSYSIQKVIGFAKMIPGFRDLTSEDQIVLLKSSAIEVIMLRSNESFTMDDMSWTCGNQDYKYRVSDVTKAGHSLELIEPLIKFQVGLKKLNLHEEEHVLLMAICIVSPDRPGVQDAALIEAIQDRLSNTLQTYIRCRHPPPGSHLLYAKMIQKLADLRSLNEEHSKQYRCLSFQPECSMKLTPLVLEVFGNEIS
Put plainly: Displacement of [3H]-1alpha,25-dihydroxyvitamin D3 from recombinant human VDR LBD expressed in Escherichia coli BL21 (DE3) pLysS after 16 hrs.

Experiment [1] addresses T2, Vitamin D3 receptor (Homo sapiens) (UniProt P11473).
T2 sequence (whole entry): T1 sequence (P11473 whole entry)
The experiment can be described thus: Agonist activity at human VDR transfected in African green monkey COS7 cells assessed as induction of transcriptional activity at 10^-10 to 10^-5 M after 16 hrs by dual luciferase reporter gene assay. The format is cell-based. The note with it: COS-7. A general note: Reporter assays use an easily measured gene product as a stand-in for the process of interest.

The term IC50 denotes the concentration at which inhibition is half-maximal.

Calls of active or inactive are those of the source. The rule behind the calls is not given here.

Take `C=C1[C@H](O)CC(=C/C=C2\CCC[C@]3(C)[C@@H]([C@H](C)[C@H](CCO)CCCCCC)CC[C@@H]23)C[C@H]1O`: the IC50 on Vitamin D3 receptor was determined as 0.21 nM. Besides, the outcome in experiment [1] was Active.
